Experimental data published in paper PMC6944674, “Comparison of the Hepatotoxic Potential of Two Treatments for Autosomal-Dominant Polycystic Kidney DiseaseUsing Quantitative Systems Toxicology Modeling” (Pharmaceutical Research, 2020).

Columns and labels:
human MRP4 = molecular target: T1, human MRP4 (Homo sapiens, UniProt O15439); experiment: MRP4 vesicular transport inhibition assay (E217βG, HEK-293 cell membrane vesicles); type: biochemical
T1 construct: host or cells: HEK-293 cell membrane vesicles
T1 sequence (O15439 1-1325): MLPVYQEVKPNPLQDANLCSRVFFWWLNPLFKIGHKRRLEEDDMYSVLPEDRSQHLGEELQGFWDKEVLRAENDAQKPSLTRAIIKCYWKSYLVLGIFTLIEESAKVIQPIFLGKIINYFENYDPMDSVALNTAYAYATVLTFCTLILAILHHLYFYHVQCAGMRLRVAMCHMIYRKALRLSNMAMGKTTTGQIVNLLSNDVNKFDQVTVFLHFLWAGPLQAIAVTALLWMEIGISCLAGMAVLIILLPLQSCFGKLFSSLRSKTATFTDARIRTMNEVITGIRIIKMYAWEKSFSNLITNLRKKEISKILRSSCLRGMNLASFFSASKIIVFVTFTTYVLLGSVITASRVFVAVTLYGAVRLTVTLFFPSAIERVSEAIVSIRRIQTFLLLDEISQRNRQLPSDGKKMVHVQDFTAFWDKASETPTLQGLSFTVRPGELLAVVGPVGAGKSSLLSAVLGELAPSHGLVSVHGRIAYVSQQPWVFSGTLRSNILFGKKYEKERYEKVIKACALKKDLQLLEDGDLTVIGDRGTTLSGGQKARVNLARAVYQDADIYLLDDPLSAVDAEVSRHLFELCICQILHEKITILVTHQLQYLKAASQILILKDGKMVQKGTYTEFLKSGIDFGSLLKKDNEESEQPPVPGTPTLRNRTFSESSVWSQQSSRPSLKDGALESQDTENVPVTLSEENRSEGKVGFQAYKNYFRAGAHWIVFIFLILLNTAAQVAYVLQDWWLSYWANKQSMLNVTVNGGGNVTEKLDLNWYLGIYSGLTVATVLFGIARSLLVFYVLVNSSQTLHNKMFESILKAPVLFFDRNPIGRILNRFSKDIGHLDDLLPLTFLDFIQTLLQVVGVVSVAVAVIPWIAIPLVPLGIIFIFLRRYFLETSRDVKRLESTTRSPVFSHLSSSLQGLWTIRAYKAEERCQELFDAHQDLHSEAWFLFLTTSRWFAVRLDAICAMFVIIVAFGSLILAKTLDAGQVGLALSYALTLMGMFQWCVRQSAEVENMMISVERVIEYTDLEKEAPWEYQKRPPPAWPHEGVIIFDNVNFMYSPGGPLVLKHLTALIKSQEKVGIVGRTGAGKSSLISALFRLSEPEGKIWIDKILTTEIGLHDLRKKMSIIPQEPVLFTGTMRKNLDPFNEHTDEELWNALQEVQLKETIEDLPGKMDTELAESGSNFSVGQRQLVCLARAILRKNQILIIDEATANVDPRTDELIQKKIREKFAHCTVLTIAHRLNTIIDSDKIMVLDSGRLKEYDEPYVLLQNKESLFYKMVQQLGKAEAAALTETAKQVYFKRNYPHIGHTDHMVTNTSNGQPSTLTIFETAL
Procedure: The functional impact of lixivaptan, its three metabolites and tolvaptan on the human ABC (efflux) transporters BSEP and MRP3 and MRP4 was assessed for this project using in vitro vesicular transport inhibition assays. The inhibition of the human SLC (uptake) transporter NTCP was assessed using CHO cells stably expressing human NTCP. The concentration ranges used for the five test articles was determined based on the solubility of each compound in the assay solution. All transporter inhibition assays were conducted in triplicate by Solvo Biotechnology (Szeged, Hungary).
Figure B2. […] See Appendix A for more details.

[1] = Intracellular concentration by LC/MS/MS in HepG2 cultures parallel to Seahorse assay; type: in vitro ADME; conditions: human, HepG2 cells, Seahorse medium
Procedure: (§1) The concentration of test compound at the site of action (i.e. hepatocytes) has been identified as highly influential in the selection of parameter values (7). To assess intracellular concentrations of the five test articles, identical HepG2 cultures were established in parallel and cell lysate concentrations of the test articles were measured by LC/MS/MS analysis. Intracellular concentrations of the test articles were calculated by correcting for cell lysate volume (100 µL) and the volume of HepG2 cells in each well, which was calculated by multiplying cell count per well by cellular volume per cell (2.85 pl/cell). One independent study in duplicate was conducted to assess intracellular concentrations of the test articles for Seahorse studies.

HepG2 cells [2] = experiment: as above; type: in vitro ADME; conditions: Seahorse medium; for CIntracellular Fraction: cell lysate; for CHepatocyte: corrected for lysate and HepG2 cell volume
Procedure: as §1

[3] = Intracellular concentration by LC/MS/MS in HepG2 cultures parallel to ROS high-content screening; type: in vitro ADME; conditions: human, HepG2 cells, High content screening medium
Procedure: (§2) To assess the intracellular concentration of lixivaptan and its metabolites, an identical HepG2 culture was established in parallel and cell lysate concentrations of each test article were measured by LC/MS/MS analysis. Intracellular concentrations of the compounds were calculated by correcting for cell lysate volume (100 µL) and the volume of HepG2 cells in each well, which was calculated by multiplying cell count per well by cellular volume per cell (2.85 pl/cell for HepG2). One independent study in triplicate was conducted to assess intracellular concentrations of the test articles for the ROS (high-content imaging) studies.

HepG2 cells [4] = experiment: as above; type: in vitro ADME; conditions: High content screening medium; for CIntracellular Fraction: cell lysate
Procedure: as §2

[5] = parameters: method as in proprietary data not shown; conditions: ref proprietary data not shown, cited from earlier work

Cc1ccc(F)cc1C(=O)Nc1ccc(C(=O)N2Cc3cccn3Cc3ccccc32)c(Cl)c1 [Lixivaptan, lixivaptan]
inhibition of MRP4-mediated probe substrate accumulation (human MRP4): inhibited
Kp at 0.5 µM ([1]; dose 0.5 µM): 23.2
Kp at 1 µM ([1]; dose 1 µM): 14.3
Kp at 5 µM ([1]; dose 5 µM): 8.02
Kp at 10 µM ([1]; dose 10 µM): 6.35
Kp at 25 µM ([1]; dose 25 µM): 4.52
Kp at 40 µM ([1]; dose 40 µM): 4.62
CIntracellular Fraction (HepG2 cells [2]; dose 0.1 µM): 0 µM
CHepatocyte (HepG2 cells [2]; dose 0.1 µM): 0 µM
CIntracellular Fraction (HepG2 cells [2]; dose 0.5 µM): 0.00582 µM
CHepatocyte (HepG2 cells [2]; dose 0.5 µM): 11.61 µM
CIntracellular Fraction (HepG2 cells [2]; dose 1 µM): 0.00738 µM
CHepatocyte (HepG2 cells [2]; dose 1 µM): 14.34 µM
CIntracellular Fraction (HepG2 cells [2]; dose 5 µM): 0.0193 µM
CHepatocyte (HepG2 cells [2]; dose 5 µM): 40.10 µM
CIntracellular Fraction (HepG2 cells [2]; dose 10 µM): 0.0307 µM
CHepatocyte (HepG2 cells [2]; dose 10 µM): 63.51 µM
CIntracellular Fraction (HepG2 cells [2]; dose 25 µM): 0.0525 µM
CHepatocyte (HepG2 cells [2]; dose 25 µM): 112.99 µM
CIntracellular Fraction (HepG2 cells [2]; dose 40 µM): 0.0823 µM
CHepatocyte (HepG2 cells [2]; dose 40 µM): 184.62 µM
Kp at 5 µM ([3]; dose 5 µM): 17.6 ± 18.4
Kp at 10 µM ([3]; dose 10 µM): 39.7 ± 6.49
Kp at 25 µM ([3]; dose 25 µM): 19.9 ± 4.54
Kp at 40 µM ([3]; dose 40 µM): 12.9 ± 2.68
CExtracellular Fraction (HepG2 cells [4]; dose 0.01 µM): 0.000 ± 0.000 µM
CHepatocyte (HepG2 cells [4]; dose 0.01 µM): 0.000 ± 0.000 µM
CIntracellular Fraction (HepG2 cells [4]; dose 0.01 µM): 0.000 ± 0.000 µM
CExtracellular Fraction (HepG2 cells [4]; dose 0.1 µM): 0.001 ± 0.001 µM
CHepatocyte (HepG2 cells [4]; dose 0.1 µM): 0.000 ± 0.000 µM
CIntracellular Fraction (HepG2 cells [4]; dose 0.1 µM): 0.000 ± 0.000 µM
CExtracellular Fraction (HepG2 cells [4]; dose 0.5 µM): 0.020 ± 0.001 µM
CHepatocyte (HepG2 cells [4]; dose 0.5 µM): 0.000 ± 0.000 µM
CIntracellular Fraction (HepG2 cells [4]; dose 0.5 µM): 0.000 ± 0.000 µM
CExtracellular Fraction (HepG2 cells [4]; dose 1 µM): 0.047 ± 0.001 µM
CHepatocyte (HepG2 cells [4]; dose 1 µM): 0.000 ± 0.000 µM
CIntracellular Fraction (HepG2 cells [4]; dose 1 µM): 0.000 ± 0.000 µM
CExtracellular Fraction (HepG2 cells [4]; dose 5 µM): 0.345 ± 0.011 µM
CHepatocyte (HepG2 cells [4]; dose 5 µM): 6.02 ± 6.30 µM
CIntracellular Fraction (HepG2 cells [4]; dose 5 µM): 0.0013 ± 0.0016 µM
CExtracellular Fraction (HepG2 cells [4]; dose 10 µM): 0.736 ± 0.055 µM
CHepatocyte (HepG2 cells [4]; dose 10 µM): 28.44 ± 5.12 µM
CIntracellular Fraction (HepG2 cells [4]; dose 10 µM): 0.0054 ± 0.0032 µM
CExtracellular Fraction (HepG2 cells [4]; dose 25 µM): 2.751 ± 0.143 µM
CHepatocyte (HepG2 cells [4]; dose 25 µM): 55.57 ± 15.10 µM
CIntracellular Fraction (HepG2 cells [4]; dose 25 µM): 0.0093 ± 0.0055 µM
CExtracellular Fraction (HepG2 cells [4]; dose 40 µM): 5.773 ± 0.508 µM
CHepatocyte (HepG2 cells [4]; dose 40 µM): 71.75 ± 11.05 µM
CIntracellular Fraction (HepG2 cells [4]; dose 40 µM): 0.0114 ± 0.0058 µM
plasma fraction unbound ([5]; human): less than 1%
blood:plasma ratio [5]: 0.6
